The text below walks through data of paper PMC3766860, “Two Novel Tyrosinase Inhibitory Sesquiterpenes Induced by CuCl2 from a Marine-Derived Fungus Pestalotiopsis sp. Z233” (Marine Drugs, 2013).

As a reminder, the IC50 is the concentration at which inhibition is half-maximal. A low value points to inhibition by little substance.

The target of this assay is Mushroom tyrosinase. The assay can be described thus: o-diphenolase assay of mushroom tyrosinase, L-DOPA substrate, DOPAchrome absorbance at […] nm. It counts as biochemical.

For `CC(=O)OC[C@]12[C@H](OC(C)=O)[C@H](O)C[C@H](C)[C@]1(OC(C)=O)[C@@H](OC(C)=O)[C@@H](C(C)(C)O)C[C@H]2OC(=O)c1ccccc1` (relative stereo) [compound 1, 1β,5α,6α,14-tetraacetoxy-9α-benzoyloxy-7βH-eudesman-2β,11-diol], the IC50 was found to be 14.8 µM.

Molecule `CC(=O)O[C@@]12C[C@@H](C(C)(C)O)C[C@@H](OC(=O)c3ccccc3)[C@@]1(CO)[C@H](O)[C@H](O)C[C@@]2(C)OC(C)=O` (relative stereo) [compound 2, 4α,5α-diacetoxy-9α-benzoyloxy-7βH-eudesman-1β,2β,11,14-tetraol] displayed a concentration for half-maximal inhibition (IC50) of 22.3 µM.
